Where two headings read alike, the source gives them in different places. Each block holds one compound with its values, some of them ahead of it.
What was measured:
[1] = test system: adults of Tetranychus cinnabarinus; experiment: Acaricidal activity against adults in greenhouse (spray on broadbean shoots, mortality after 72 hrs); format: in vivo; conditions: for control against adults of Tetranychus cinnabarinus: spray, 72 hrs
Protocol: (§1) The activity determinations of compounds of the present invention against adults, nymphs and eggs of Tetranychus cinnabarinus were carried out in greenhouse by the following procedures:
The activity determination against adults in greenhouse: the compounds were weighed and dissolved in acetone to obtain mother liquid, and then the mother liquid was diluted to required concentration with placed running water containing 0.1% of Tween 80. Broadbean shoots with two true leaves were used to inoculate adults of Tetranychus cinnabarinus which were counted, spraying treatment was performed by portable sprayer (DeVilbiss Atomizer M163), 3 replicates were set for each treatment. After treatment the broadbean shoots were maintained in standard observation room. Scores were conducted and mortalities were calculated after 72 hrs.

citrus red mite = experiment: Field trial against citrus red mite (Guilin, China); format: in vivo
Protocol: Field Trial Against Citrus Red Mite (Guilin, China)
The trial was carried out in a 2-year-old Shatang orange orchard in Chaotian town lingchuan county guilin city, trifoliate orange trees were selected as stocks, the intervals between two plants was 1.5×2.5 m, the average height was 1.45 m and the crown width was 1.30 m. Two trees were selected in each plot, with random arrangement and 4 replications. Compound 9 (15% SC) was set at two different doses (100 mg/L and 25 mg/L), and spirodiclofen (24% SC) was set at one dose (48 mg/L). Matabi Supergreen 16 Knapsack Sprayer 16 Liter was used to spray evenly with 2 L of spaying volume for each plant. The plants were treated once on 30 Oct. 2009, at that time, adults, nymphs and eggs of citrus red mite all existed, with adults/eggs=1/1.27. During the day the plants were treated, and the weather was good with the average temperature at 23° C. The first three days after treatment were all clear days. The number of mites was investigated before treatment and on the 1st, 3rd, 10th, 15th, 20th and 30th day after treatment respectively. Two trees of each plot were investigated according to the five directions of the tree crown (east, south, west, north and central), 5 leaves in each direction were investigated to calculate the number of living mites, with 50 leaves each plot. The decline rate of mite population and corrected efficacy were calculated according to formulas below: The decline rate of mite population(%)=[(the average number of mite on each leaf before treatment−the average number of mite on each leaf after treatment)/the average number of mite on each leaf before treatment]×100. Corrected efficacy(%)=[(the decline rate of mite population in treated area−the decline rate of mite population in untreated area)/(100−the decline rate of mite population in untreated area)]×100.

[2] = test system: eggs of Tetranychus cinnabarinus; experiment: Activity against eggs in greenhouse (hatching inhibition rate); format: in vivo; conditions: Tetranychus cinnabarinus
Protocol: as §1
The activity determination against eggs in greenhouse: Broadbean shoots in pot with one true leaf retained were taken, ten healthy female adults of Tetranychus cinnabarinus were inoculated to the leaves, the adults were removed after 24 hrs and the eggs were counted and then sprayed. The treatment of test compounds and spaying method were the same as that of the activity determination in greenhouse against adults. Once eggs of blank control were all hatched after 5 days, unhatched eggs in each treatment were investigated and the hatching inhibition rate were calculated.

[3] = test system: nymphs of Tetranychus cinnabarinus; experiment: Acaricidal activity against nymphs in greenhouse (spray, mortality after 72 hrs); format: in vivo
Protocol: as §1
The activity determination against nymphs in greenhouse: broadbean shoots with two true leaves in pot were taken, ten healthy female adults of Tetranychus cinnabarinus were inoculated to the leaves, the adults were removed after 24 hrs and the eggs were cultivated into nymphs after 7-10 days. The nymphs were counted and then sprayed. 3 replicates were set for each treatment. And then were maintained in standard observation room. Scores were conducted and mortalities were calculated after 72 hrs.

melting point: 150 to 151 °C
Structure (SMILES): CO/C=C(/C(=O)OC)c1ccccc1COc1nc(Nc2ccc(Cl)cc2Cl)nc2c1CCC2 [Compound 97]

melting point: 118 to 120 °C
Structure (SMILES): CO/C=C(/C(=O)OC)c1ccccc1COc1nc(Nc2ccc(F)c(F)c2F)nc2c1CCC2 [Compound 103]

melting point: 150 to 151 °C
Structure (SMILES): CO/C=C(/C(=O)OC)c1ccccc1COc1nc(Nc2ccc(Cl)c(C)c2Cl)nc2c1CCC2 [Compound 105]

melting point: 132 to 134 °C
Structure (SMILES): CO/C=C(/C(=O)OC)c1ccccc1COc1nc(Nc2cccc(Cl)c2Cl)nc2c1CCC2 [Compound 128]

Continued, compound first:

Structure (SMILES): CO/C=C(/C(=O)OC)c1ccccc1COc1cc(C(F)(F)F)nc(Nc2ccc(Cl)cc2Cl)n1 [Compound 9]
mortality at 0.625 µg/mL ([1]; Tetranychus cinnabarinus, 0.625 mg/L, Table 7, read-out: mortalities of adults of Tetranychus cinnabarinus (%)): 88%
mortality at 1.25 µg/mL ([1]; Tetranychus cinnabarinus, 1.25 mg/L, Table 7, read-out: mortalities of adults of Tetranychus cinnabarinus (%)): 90%
mortality at 2.5 µg/mL ([1]; Tetranychus cinnabarinus, 2.5 mg/L, Table 7, read-out: mortalities of adults of Tetranychus cinnabarinus (%)): 98%
mortality at 5 µg/mL ([1]; Tetranychus cinnabarinus, 5 mg/L, Table 7, read-out: mortalities of adults of Tetranychus cinnabarinus (%)): 100%
mortality at 10 µg/mL ([1]; Tetranychus cinnabarinus, 10 mg/L, Table 7, read-out: mortalities of adults of Tetranychus cinnabarinus (%)): 100%
mortality at 40 µg/mL ([1]; Tetranychus cinnabarinus, 40 mg/L, Table 7, read-out: mortalities of adults of Tetranychus cinnabarinus (%)): 100%
control against adults of Tetranychus cinnabarinus ([1]; dose 5 mg/L): 100%
control against adults of Tetranychus cinnabarinus ([1]; dose 10 mg/L): 100%
control against adults of Tetranychus cinnabarinus ([1]; dose 40 mg/L): 100%
control against adults of Tetranychus cinnabarinus ([1]; dose 100 mg/L): 100%
Corrected efficacy (%) (citrus red mite; 25 mg/L (15% SC), the 1st day after treatment): 90%
Corrected efficacy (%) (citrus red mite; 25 mg/L (15% SC), the 3rd day after treatment): 92%
Corrected efficacy (%) (citrus red mite; 25 mg/L (15% SC), the 10th day after treatment): 83%
Corrected efficacy (%) (citrus red mite; 25 mg/L (15% SC), the 15th day after treatment): 91%
Corrected efficacy (%) (citrus red mite; 25 mg/L (15% SC), the 20th day after treatment): 92%
Corrected efficacy (%) (citrus red mite; 25 mg/L (15% SC), the 30th day after treatment): 91%
Corrected efficacy (%) (citrus red mite; 100 mg/L (15% SC), the 1st day after treatment): 92%
Corrected efficacy (%) (citrus red mite; 100 mg/L (15% SC), the 3rd day after treatment): 96%
Corrected efficacy (%) (citrus red mite; 100 mg/L (15% SC), the 10th day after treatment): 96%
Corrected efficacy (%) (citrus red mite; 100 mg/L (15% SC), the 15th day after treatment): 95%
Corrected efficacy (%) (citrus red mite; 100 mg/L (15% SC), the 20th day after treatment): 97%
Corrected efficacy (%) (citrus red mite; 100 mg/L (15% SC), the 30th day after treatment): 94%
inhibition at 0.625 µg/mL ([2]; 0.625 mg/L, Table 8, read-out: hatching inhibition rate against eggs (%)): 20%
inhibition at 2.5 µg/mL ([2]; 2.5 mg/L, Table 8, read-out: hatching inhibition rate against eggs (%)): 100%
inhibition at 10 µg/mL ([2]; 10 mg/L, Table 8, read-out: hatching inhibition rate against eggs (%)): 100%
inhibition at 2.5 µg/mL ([2]; dose 2.5 mg/L, read-out: hatching inhibition rate against eggs of Tetranychus cinnabarinus): ≥ 90%
inhibition at 10 µg/mL ([2]; dose 10 mg/L, read-out: hatching inhibition rate against eggs of Tetranychus cinnabarinus): 100%
control against nymphs of Tetranychus cinnabarinus ([3]; dose 0.63 mg/L): more than 95%
control against nymphs of Tetranychus cinnabarinus ([3]; dose 2.5 mg/L): 100%

Structure (SMILES): CO/C=C(/C(=O)OC)c1ccccc1COc1nc(Nc2ccc(F)cc2F)nc2c1CCC2 [Compound 96]
melting point: 106 to 108 °C

— patent US8609667B2, “E-type phenyl acrylic ester compounds containing substituted anilino pyrimidine group and uses thereof” (Sinochem Corporation, priority 2009, dated 2013)
